Here are results for 1 compound from US10376550B2, “Nutraceutical composition and methods of use” (Dacy Tech Party Ltd., priority 2007, dated 2019).

In assay [1] the test system is prostaglandin PGF2α levels. The experiment in a line: PGF2α levels in IL-1β stimulated NHAC cells. It is filed as cell-based. As to conditions: IL-1β 10 ng/ml, 24 hours, fractions 64-32 μg/ml. On the procedure:
(§1) To study the anti-inflammatory activities, assays Fr 1, Fr i, Fr V and Fr Vi were selected and tested at a concentration of ≤64 μg/ml. The assays carried out to measure the 1) Nitric Oxide (NO) levels, 2) prostaglandin PGE2 levels, 3) prostaglandin PGF2α levels. NHAC cells at passage 3, were stimulated first with proinflammatory cytokine IL-1β at a predetermined concentration 10 ng/ml overnight, NHAC Cells were then treated with fractions in the presence of IL-1β 10 ng/ml for 24 hours and cell culture supernatant was collected to measure NO, PGE2 and PGF2α levels. Griess Reagent Kit for Nitrite Determination (Molecular Probes, Invitrogen) was used as per kit instructions. For estimation of PGs, High Sensitivity PGE2 & PGF2α EIA kits (Assay Designs Inc.) were used.

In assay [2] the test system is prostaglandin PGE2 levels. The experiment in a line: PGE2 levels in IL-1β stimulated NHAC cells. In kind it is cell-based. As to conditions: IL-1β 10 ng/ml, 24 hours, fractions ≤64 μg/ml. The method, then: as §1

As to `COc1ccc2c(c1)c(CC(=O)O)c(C)n2C(=O)c1ccc(Cl)cc1` [Indomethacin], the “IL-1β induced PGF2α levels” value in assay [1] was “significantly reduced”. For the same compound, the “IL-1β induced PGE2 levels” value in assay [2] was “significantly reduced”.
